Test results: patent US20260315521A1, “THERAPEUTIC FORMULATIONS FOR KIDNEY DISEASE COMPRISING REPAGERMANIUM OR PROPAGERMANIUM AND/OR AT1R BLOCKERS” (DIMERIX BIOSCIENCE PTY LTD, priority 2023, published 2026)
Read-outs that look alike come from different tables or passages of the source.

Tests used:
AT1R [1] = target: T1, AT1R (Homo sapiens, UniProt P30556); assay: ARB potency or affinity at AT1R only (public sources: IUPHAR guide to pharmacology, Michel et al 2013, Choung et al 2018); format: binding; details: reference value
T1 sequence (P30556 1-359): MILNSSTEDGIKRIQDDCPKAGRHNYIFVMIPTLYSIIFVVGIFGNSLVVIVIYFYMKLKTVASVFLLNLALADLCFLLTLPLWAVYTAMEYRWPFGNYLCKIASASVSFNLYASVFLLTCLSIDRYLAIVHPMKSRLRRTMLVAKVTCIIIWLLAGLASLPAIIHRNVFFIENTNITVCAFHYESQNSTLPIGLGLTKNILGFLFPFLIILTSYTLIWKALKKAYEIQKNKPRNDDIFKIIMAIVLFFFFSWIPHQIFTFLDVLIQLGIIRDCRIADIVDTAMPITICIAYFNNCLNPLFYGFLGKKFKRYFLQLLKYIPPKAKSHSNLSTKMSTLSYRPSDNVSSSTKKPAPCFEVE

AT1R [2] = target: T1, AT1R; details: pIC50 or pKb from IUPHAR and/or Michel et al (2013), fimasartan from Choung et al 2018; cited from earlier work
[3] = Effect of different doses of repagermanium on efficacy of treatment (FIG. 1); format: in vivo
[4] = tested on: protein to creatinine ratio; assay: Reduction in protein to creatinine ratio as a biomarker of kidney function; format: in vivo, human; details: 120 mg BID
[5] = Population pharmacokinetic analysis of repagermanium (studies DMX-200-101, -202, -203; LC-MS/MS plasma levels); format: in vivo, human; details: for AUC(0-t) at 24 h: 240 mg/day, read-out: AUC24h, steady state, median; for AUC(0-t) at 24 h / AUC24h, steady state, range: 240 mg total daily dose; for CL/F: po, read-out: Clearance, median (converted)
Procedure: In all studies blood samples were analyzed using liquid chromatography tandem mass spectrometry (LC-MS/MS). This method involves the addition of deuterated-PPG (d2-PPG) as an internal standard (IS) and liquid-liquid extraction with chloroform for sample processing. The sample is analyzed on an LC-MS/MS system consisting of a Shimadzu LC20AD with Thermo Fisher Hypercarb column using gradient elution and an API 4000 mass spectrometer. The mass spectrometer is operated in the negative electrospray ionization (ESI) ion mode, and used to monitor the precursor to product ion transitions for PPG and d2-PPG, respectively. The lower limit of quantification (LLOQ) was 5 ng/ml.
The pharmacometric analysis was carried out in several steps driven by the suitability of the clinical data for development of the PK model. 1. An initial structural population PK model was developed using data from healthy volunteers (study 101). 2. This model was subsequently updated using the sparse data in patients from studies 202 and 203, and effects of covariates were explored. 3. Model qualification was performed. 4. Finally, the developed model was used for simulations of the influence of covariates on key PK parameters as well as on potential exposures.
The SAS software (version 9.4) was used for preparing the analysis dataset. The population PK analysis was performed using NONMEM (version 7.5.0) and the first order conditional estimation (FOCE) method with interaction. PsN (version≥5.0.0) was used to execute NONMEM runs as well as for running visual predictive checks (VPCs), sampling importance resampling (SIR) and automated step-wise covariate modelling (SCM). The R software (version≥4.0.2) was used for exploratory analysis, creation of goodness of fit (GOF) plots, and summary statistics. Campsis (version 1.1.0), an R-based software application provided by Calvagone, was used for simulations.
The NONMEM version 7.5.0 was used with the GNU Fortran (GCC) compiler version 9.3.0, running on a Ubuntu 20.04 LTS system with Linux kernel version 5.4.0-72-generic on Intel Xeon E5-2640 v3 @ 8 HT 2.60 GHz, using VMWare ESXi 7.0u1 platform with fault tolerance, hosting virtual management server with 8 vCPU; and calculation nodes with Intel Xeon E5-2680 v4 14HT 2.40 GHz. Fortran compiler optimisation options were:-static-w-O3-ffast-math. All software was used in a validated environment.
In the mixed effects modelling the population parameters are categorised as follows: Fixed effects parameters, θ (theta), are used for the structural population parameters (e.g. Ka, CL, V, F, etc.), as well as certain parameters relating the population parameters to the physiological or demographic variables (covariates) included in the analysis. Random effects parameters, n (eta), are used for describing inter-individual variability (IIV) in the fixed effects parameters, and can also be used to describe inter-occasion variability (IOV) if appropriately included in the model. Eta parameters are assumed to be normally distributed random variables with mean zero and variance-covariance matrix Q (omega). The square root of the diagonal elements of this matrix provides the IIV estimates. Off-diagonal elements (if not fixed to zero) are commonly translated to correlations. Random effects parameters, ¿ (epsilon), are used to describe the residual variability. Residual variability includes intra-individual error, analytical error, potential error due to model missspecification and any other error not considered by structural elements such as θ and η. Residual variability parameters are assumed to be normally distributed random variables with mean zero and standard deviation σ (sigma).
Different structural models combined with different residual error models and, if needed, with different estimation methods were applied to identify the most appropriate mixed-effects model. […]

[6] = tested on: angiotensin II-induced cellular responses; details: compared with losartan; cited from earlier work
[7] = target: T2, co-stimulated CCR2-AT1R complexes (Homo sapiens, UniProt P30556); assay: Gαi protein dissociation assay (ligand-induced BRET) in HEK293FT cells co-stimulated with AngII and MCP-1/CCL2; format: cell-based
T2 construct: HA (haemagglutinin); expressed in transfected cells; host or cells: HEK293FT
Excerpt: To establish if ARBs maintain their potency for inhibition of Gαi protein activation the potencies of ARBs at AT1R only were correlated with the potency of ARBs at co-stimulated CCR2-AT1R complexes obtained from a Gαi protein dissociation assay (FIG. 2).
HEK293FT cells were transiently transfected by the plasmids coding for Gαi1-Nluc and CCR2-YFP haemagglutinin (HA)-tagged AT1R.
GraphPad Prism (v9.3.1) was then used plot ligand-induced BRET verses ARB concentration and potency (pIC50-values) were obtained by fitting a sigmoidal concentration response curve using non-linear regression function of GraphPad Prism (v9.3.1).
To calculate the potency of sparsentan HEK293FT cells were transiently transfected by the plasmids coding for Gαi1-Rluc8, CCR2-YFP and haemagglutinin (HA)-tagged AT1R. 48 h post-transfection, cells were incubated with substrate for 2 hours before cells were pre-incubated with sparsentan (1 μM) and filtered light emissions were sequentially measured for 1 s in each of the ‘donor wavelength window’ (410-490 nm) and ‘acceptor wavelength window’ (520-620 nm) for 30 minutes.
The potency of ARBs at co-stimulated CCR2-AT1R complexes was then compared to the potency of ARBs at AT1R using the linear regression function of GraphPad Prism (v9.3.1).

[8] = tested on: chemotactic migration of monocytes by MCP-1; details: cited from earlier work
[9] = study 101, healthy volunteers, oral
[10] = study 202, FSGS patients receiving irbesartan
[11] = study 203, DKD patients receiving irbesartan

T2 sequence (P41597 whole entry partner, one chain of several): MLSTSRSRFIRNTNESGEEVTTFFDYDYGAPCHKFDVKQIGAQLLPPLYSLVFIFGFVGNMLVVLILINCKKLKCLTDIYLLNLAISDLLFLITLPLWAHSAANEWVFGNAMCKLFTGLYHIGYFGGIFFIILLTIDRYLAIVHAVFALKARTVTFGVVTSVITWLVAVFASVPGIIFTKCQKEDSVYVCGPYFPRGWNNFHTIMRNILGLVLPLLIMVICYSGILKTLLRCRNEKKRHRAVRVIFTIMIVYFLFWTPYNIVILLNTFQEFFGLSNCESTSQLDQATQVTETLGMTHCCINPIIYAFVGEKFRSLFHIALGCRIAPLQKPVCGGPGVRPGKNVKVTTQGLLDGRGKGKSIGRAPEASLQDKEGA

SMILES: CCCCc1ncc(/C=C(\Cc2cccs2)C(=O)O)n1Cc1ccc(C(=O)O)cc1 [Eprosartan]
- Fold decrease in potency, AT1R only (AT1R [1]): 1.00 fold
- Potency (pIC50/pKb), AT1R only (AT1R [2]): 8.8

SMILES: O=C(O)C[CH2][Ge](=[O])[O][Ge](=[O])[CH2]CC(=O)O [repagermanium, 3-[(2-carboxyethyl-oxogermyl)oxy-oxogermyl]propanoic acid]
- therapeutic effect ([3]; 140 mg twice per day): reduced therapeutic effect
- efficacy vs repagermanium dose ([3]; different doses, FIG. 1): ‘bell-shaped’ inhibitory curve
- protein to creatinine ratio [4]: reduction in protein to creatinine ratio
- blood concentration before the next dose ([5]; 80 mg twice per day): falling too low before the next dose to provide a therapeutic effect
- steady state AUC, range ([5]; 120 mg BID): 5000 to 25000 ng·h/mL
- AUC(0-t) at 24 h ([5]; human, plasma, study 101, healthy volunteers): 9800 ng·h/mL
- AUC(0-t) at 24 h ([5]; human, plasma, study 202, FSGS patients): 16700 ng·h/mL
- AUC(0-t) at 24 h ([5]; human, plasma, study 203, DKD patients): 11800 ng·h/mL
- CL/F ([5]; human, plasma, study 101, healthy volunteers, oral): 670 mL/min
- CL/F ([5]; human, plasma, study 202, FSGS patients receiving irbesartan, 120 mg bid oral): 300 mL/min
- CL/F ([5]; human, plasma, study 203, DKD patients receiving irbesartan, 120 mg bid oral): 345 mL/min
- AUC ([5]; human, plasma, 120 mg BID, read-out: steady state AUC): ~15000 ng·h/mL
- Clearance, range [5, 9]: 24.6 to 60.1 L/h
- F (rel. bioavailability), median [5, 9]: 1.6
- F (rel. bioavailability), range [5, 9]: 0.7-3.7
- AUC24h, steady state, range ([5]; study 101, healthy volunteers): 5500 to 24900 ng·h/mL
- F (rel. bioavailability), median [5, 10]: 1.1
- F (rel. bioavailability), range [5, 10]: 0.9-1.7
- Clearance, range ([5]; study 202, FSGS patients receiving irbesartan, 120 mg bid oral): 4.6 to 36.5 L/h
- AUC24h, steady state, range ([5]; study 202, FSGS patients): 7800 to 45200 ng·h/mL
- F (rel. bioavailability), median [5, 11]: 1.0
- F (rel. bioavailability), range [5, 11]: 0.4-1.9
- Clearance, range ([5]; study 203, DKD patients receiving irbesartan, 120 mg bid oral): 5.8 to 47.6 L/h
- AUC24h, steady state, range ([5]; study 203, DKD patients): 3900 to 47700 ng·h/mL

SMILES: CCCCc1nc(Cl)c(C(=O)O)n1Cc1ccc(-c2ccccc2-c2nn[nH]n2)cc1 [EXP3174]
- potency in blocking angiotensin II-induced cellular responses [6]: significantly more potent than losartan

SMILES: CCCCC1=NC2(CCCC2)C(=O)N1Cc1ccc(-c2ccccc2S(=O)(=O)Nc2noc(C)c2C)c(COCC)c1 [Sparsentan, 2-[4-[(2-butyl-4-oxo-1,3-diazaspiro[4.4]non-1-en-3-yl)methyl]-2-(ethoxymethyl)phenyl]-N-(4,5-dimethyl-1,2-oxazol-3-yl)benzenesulfonamide]
- Fold decrease in potency, AT1R only (AT1R [1]): 1.00 fold
- Kb ([7]; read-out: Affinity (pKb), AT1R-CCR2 (converted)): 1.74 nM
- Potency (pIC50/pKb), AT1R only (AT1R [2]): 9.1

SMILES: O=C(O)C[CH2][Ge](=[O])[O][Ge](=[O])[CH2]CC(=O)O [propagermanium, 3-[(2-carboxyethyl-oxogermyl)oxy-oxogermyl] propanoic acid]
- inhibition of in vitro chemotactic migration of monocytes by MCP-1 [8]: specifically inhibit in vitro chemotactic migration of monocytes by MCP-1

SMILES: CCCCc1nc(C)c(CC(=S)N(C)C)c(=O)n1Cc1ccc(-c2ccccc2-c2nnn[nH]2)cc1 [Fimasartan]
- Fold decrease in potency, AT1R only (AT1R [1]): 1.00 fold
- Potency (pIC50/pKb), AT1R only (AT1R [2]): 8.82^$

SMILES: CCOc1nc2cccc(C(=O)O)c2n1Cc1ccc(-c2ccccc2-c2nc(=O)o[nH]2)cc1 [Azilsartan]
- Fold decrease in potency, AT1R only (AT1R [1]): 1.00 fold
- Potency (pIC50), AT1R-CCR2 ([7]; HEK293FT, 100 nM AngII + 100 nM MCP-1, 30 min ARB pre-incubation): 9.97
- Potency (pIC50/pKb), AT1R only (AT1R [2]): 9.9

SMILES: CCOc1nc2cccc(C(=O)O)c2n1Cc1ccc(-c2ccccc2-c2nnn[nH]2)cc1 [Candesartan]
- Fold decrease in potency, AT1R only (AT1R [1]): 1.00 fold
- Potency (pIC50/pKb), AT1R only (AT1R [2]): 10
